From US20200190073A1, “SUBSTITUTED SUCCINIMIDE DERIVATIVES AS PESTICIDES” (BASF SE, priority 2017, published 2020)
Where two headings read alike, the source gives them in different places.

Columns and labels:
Assay type in all cases: in vivo
[1] = test system: Diamond back moth (Plutella xylostella); assay: B.1 Diamond back moth, cabbage leaf dip; settings: foliar, 72 h, read-out: mortality in comparison with untreated controls
Procedure: B.1 Diamond back moth (Plutella xylostella)
The active compound was dissolved at the desired concentration in a mixture of 1:1 (vol:vol) distilled water:acetone. Surfactant (Kinetic HV) was added at a rate of 0.01% (vol/vol). The test solution was prepared at the day of use.
Leaves of cabbage were dipped in test solution and air-dried. Treated leaves were placed in petri dishes lined with moist filter paper and inoculated with ten 3rd instar larvae. Mortality was recorded 72 hours after treatment. Feeding damages were also recorded using a scale of 0-100%.

[2] = test system: Green Peach Aphid (Myzus persicae); assay: B.2 Green peach aphid, artificial diet, systemic; settings: 72 h, read-out: mortality in comparison with untreated controls
Source text: B.2 Green Peach Aphid (Myzus persicae)
For evaluating control of green peach aphid (Myzus persicae) through systemic means the test unit consisted of 96-well-microtiter plates containing liquid artificial diet under an artificial mem brane.
The compounds were formulated using a solution containing 75% v/v water and 25% v/v DMSO. Different concentrations of formulated compounds were pipetted into the aphid diet, using a custom built pipetter, at two replications.
After application, 5-8 adult aphids were placed on the artificial membrane inside the microtiter plate wells. The aphids were then allowed to suck on the treated aphid diet and incubated at about 23±1° C. and about 50±5% relative humidity for 3 days. Aphid mortality and fecundity was then visually assessed.

[3] = test system: Vetch Aphid (Megoura viciae); assay: B.3 Vetch aphid, broad bean leaf disks; settings: foliar, 120 h, read-out: mortality in comparison with untreated controls
Procedure: B.3 Vetch Aphid (Megoura viciae)
For evaluating control of vetch aphid (Megoura viciae) through contact or systemic means the test unit consisted of 24-well-microtiter plates containing broad bean leaf disks.
The compounds were formulated using a solution containing 75% v/v water and 25% v/v DMSO. Different concentrations of formulated compounds were sprayed onto the leaf disks at 2.5 μl, using a custom built micro atomizer, at two replications.
After application, the leaf disks were air-dried and 5-8 adult aphids placed on the leaf disks inside the microtiter plate wells. The aphids were then allowed to suck on the treated leaf disks and incubated at about 23±1° C. and about 50±5% relative humidity for 5 days. Aphid mortality and fecundity was then visually assessed.

[4] = test system: Tobacco Budworm (Heliothis virescens); assay: B.4 Tobacco budworm, insect diet with eggs; settings: 120 h, read-out: mortality in comparison with untreated controls
Procedure: B.4 Tobacco Budworm (Heliothis virescens)
For evaluating control of tobacco budworm (Heliothis virescens) the test unit consisted of 96-well-microtiter plates containing an insect diet and 15-25 H. virescens eggs.
The compounds were formulated using a solution containing 75% v/v water and 25% v/v DMSO. Different concentrations of formulated compounds were sprayed onto the insect diet at 10 μl, using a custom built micro atomizer, at two replications.
After application, microtiter plates were incubated at about 28±1° C. and about 80±5% relative humidity for 5 days. Egg and larval mortality was then visually assessed.

[5] = test system: Boll Weevil (Anthonomus grandis); assay: B.5 Boll weevil, insect diet with eggs; settings: 120 h, read-out: mortality in comparison with untreated controls
Procedure: B.5 Boll Weevil (Anthonomus grandis)
For evaluating control of boll weevil (Anthonomus grandis) the test unit consisted of 96-well-microtiter plates containing an insect diet and 5-10 A. grandis eggs.
The compounds were formulated using a solution containing 75% v/v water and 25% v/v DMSO. Different concentrations of formulated compounds were sprayed onto the insect diet at 5 μl, using a custom built micro atomizer, at two replications.
After application, microtiter plates were incubated at about 25±1° C. and about 75±5% relative humidity for 5 days. Egg and larval mortality was then visually assessed.

[6] = test system: Orchid Thrips (Dichromothrips Corbetti); assay: B.7 Orchid thrips, floral immersion; settings: Thrips, 72 h, read-out: mortality in comparison with untreated controls
Procedure: B.7 Orchid Thrips (Dichromothrips Corbetti)
Dichromothrips corbetti adults used for bioassay were obtained from a colony maintained continuously under laboratory conditions. For testing purposes, the test compound is diluted in a 1:1 mixture of acetone:water (vol:vol), plus Kinetic HV at a rate of 0.01% v/v.
Thrips potency of each compound was evaluated by using a floral-immersion technique. All petals of individual, intact orchid flowers were dipped into treatment solution and allowed to dry in Petri dishes. Treated petals were placed into individual re-sealable plastic along with about 20 adult thrips. All test arenas were held under continuous light and a temperature of about 28° C. for duration of the assay. After 3 days, the numbers of live thrips were counted on each petal. The percent mortality was recorded 72 hours after treatment.

[7] = test system: Rice Green Leafhopper (Nephotettix virescens); assay: B.8 Rice green leafhopper, sprayed rice seedlings; settings: 72 h, read-out: mortality in comparison with untreated controls
Procedure: B.8 Rice Green Leafhopper (Nephotettix virescens)
(§1) Rice seedlings were cleaned and washed 24 hours before spraying. The active compounds were formulated in 1:1 acetone:water (vol:vol), and 0.01% vol/vol surfactant (Kinetic HV) was added. Potted rice seedlings were sprayed with 5-6 ml test solution, air dried, covered with Mylar cages and inoculated with 10 adults. Treated rice plants were kept at about 28-29° C. and relative humidity of about 50-60%. Percent mortality was recorded after 72 hours.

[8] = test system: Red Spider Mite (Tetranychus kanzawai); assay: B.9 Red spider mite, sprayed cowpea beans; settings: 72 h, read-out: mortality in comparison with untreated controls
Procedure: B.9 Red Spider Mite (Tetranychus kanzawai)
The active compound was dissolved at the desired concentration in a mixture of 1:1 (vol:vol) distilled water:acetone. Add surfactant (Kinetic HV) was added at a rate of 0.01% (vol/vol).The test solution was prepared at the day of use.
Potted cowpea beans of 4-5 days of age were cleaned with tap water and sprayed with 1-2 ml of the test solution using air driven hand atomizer. The treated plants were allowed to air dry and afterwards inoculated with 30 or more mites by clipping a cassava leaf section from rearing population. Treated plants were placed inside a holding room at about 25-27° C. and about 50-60% relative humidity. Percent mortality was assessed 72 hours after treatment.

[9] = test system: Green Soldier Stink Bug (Nezara viridula); assay: B.11 Green soldier stink bug, sprayed soybean pods; settings: 120 h, read-out: mortality in comparison with untreated controls
Procedure: B.11 Green Soldier Stink Bug (Nezara viridula)
The active compound was dissolved at the desired concentration in a mixture of 1:1 (vol:vol) distilled water:acetone. Surfactant (Kinetic HV) was added at a rate of 0.01% (vol/vol). The test solution was prepared at the day of use. Soybean pods were placed in glass Petri dishes lined with moist filter paper and inoculated with ten late 3rd instar N. viridula. Using a hand atomizer, approximately 2 ml solution is sprayed into each Petri dish. Assay arenas were kept at about 25° C. Percent mortality was recorded after 5 days.

[10] = test system: Diamond back moth (Plutella xylostella); assay: CE.6 Diamond back moth, contact activity, comparative test; settings: read-out: % mortality in comparison to untreated controls
Procedure: (§2) The tables show % mortality in comparison to untreated controls.
CE.6 Diamond Back Moth (Plutella xylostella)
Ten third-instar larvae are sprayed with 1 ml test solution and introduce to untreated leaves held petri dished lined with moist filter paper. Mortality is recorded 24, 72, and 120 hours after treatment.

[11] = test system: Cowpea Aphid (Aphis Craccivora); assay: CE.1 Cowpea aphid, comparative test; settings: read-out: % mortality in comparison to untreated controls; for mortality at 300 ppm: sprayed cowpea plants
Procedure: as §2
CE.1 Cowpea Aphid (Aphis Craccivora)
Potted cowpea plants colonized with approximately 100-150 aphids of various stages were sprayed after the pest population has been recorded. Population reduction was assessed after 24, 72, and 120 hours.

[12] = test system: Rice Green Leafhopper (Nephotettix virescens); assay: CE.5 Rice green leafhopper, comparative test; settings: read-out: % mortality in comparison to untreated controls
Procedure: as §2
CE.5 Rice Green Leafhopper (Nephotettix virescens)
as §1, with “50:50” for “1:1”, “0.1%” for “0.01%”, “(EL 620)” for “(Kinetic HV)”, “5” for “5-6”, “placed in” for “covered with Mylar”

[13] = test system: Neotropical Brown Stink Bug (Euschistus heros); assay: B.12 Neotropical brown stink bug, dipped pole bean; settings: 120 h, read-out: mortality in comparison with untreated controls
Procedure: B.12 Neotropical Brown Stink Bug (Euschistus heros)
For evaluating control of Euschistus heros through contact the test unit consisted of 100 ml disposable plastic beakers with transparent lids.
The compounds were formulated using a solution containing 50% water and 50% acetone. 50 ml of different concentrations of formulated compounds or mixtures were prepared in a glass petri dish and used for dipping three 6 cm sections of fresh pole bean. Each treatment was replicated eight times.
After application, the pole bean sections were air-dried and 5 adult E. heros placed in each beaker. The E. heros were then allowed to suck on the treated pole bean sections and incubated at 23±1° C., 50±5% RH for 5 days. E. heros mortality was then visually assessed.

[14] = test system: Rice Brown Plant Hopper (Nilaparvata lugens); assay: CE.2 Rice brown plant hopper, comparative test; settings: 10 ppm, after 72 hours, read-out: % mortality in comparison to untreated controls
Procedure: as §2
CE.2 Rice Brown Plant Hopper (Nilaparvata lugens)
as §1, with “50:50” for “1:1”, “(vol:vol)” for “(vol:vol),”, “0.1%” for “0.01%”, “(EL 620)” for “(Kinetic HV)”, “5” for “5-6”, “placed in” for “covered with Mylar”

[15] = test system: Orchid Thrips (Dichromothrips Corbetti); assay: CE.3 Orchid thrips, comparative test; settings: 96 h, 10 ppm, after 4 days, read-out: % mortality in comparison to untreated controls
Procedure: as §2
CE.3 Orchid Thrips (Dichromothrips Corbetti)
Dichromothrips corbetti adults used for bioassay were obtained from a colony maintained continuously under laboratory conditions. For testing purposes, the test compound was diluted to a concentration of 300 ppm (wt compound: vol diluent) in a 1:1 mixture of acetone:water (vol:vol), plus 0.01% vol/vol Kinetic® surfactant.
Thrips potency of each compound was evaluated by using a floral-immersion technique. Plastic petri dishes were used as test arenas. All petals of individual, intact orchid flowers were dipped into treatment solution and allowed to dry. Treated flowers were placed into individual petri dishes along with 10-15 adult thrips. The petri dishes were then covered with lids. All test arenas were held under continuous light and a temperature of about 280C for duration of the assay. After 4 days, the numbers of live thrips were counted on each flower, and along inner walls of each petri dish. The level of thrips mortality was extrapolated from pre-treatment thrips numbers.

CCN1C(=O)C[C@@H](NC(=O)c2ccc(C3=NO[C@@](c4cc(Cl)c(F)c(Cl)c4)(C(F)(F)F)C3)cc2Cl)C1=O [Compound I-1-21]
mortality at 300 ppm [1]: > 75% | mortality at 2500 ppm [2]: > 75% | mortality at 2500 ppm [3]: > 75% | mortality at 2500 ppm [4]: > 75% | mortality at 2500 ppm [5]: > 75% | mortality at 300 ppm [6]: > 75% | mortality at 300 ppm [7]: > 75% | mortality at 300 ppm [8]: > 75% | mortality at 300 ppm [9]: > 75% | mortality at 0.1 ppm [10]: 97%

Cc1cc(C2=NOC(c3cc(Cl)c(F)c(Cl)c3)(C(F)(F)F)C2)ccc1C(=O)N[C@@H]1CC(=O)N(C)C1=O (stereo partly shown) [Compound I-1-27]
mortality at 300 ppm [1]: > 75% | mortality at 2500 ppm [2]: > 75% | mortality at 2500 ppm [3]: > 75% | mortality at 2500 ppm [4]: > 75% | mortality at 2500 ppm [5]: > 75% | mortality at 300 ppm [6]: > 75% | mortality at 300 ppm [7]: > 75% | mortality at 300 ppm [8]: > 75% | mortality at 300 ppm [9]: > 75% | mortality at 10 ppm [11]: 93% | mortality at 3 ppm ([12]; 72 h): 83% | mortality at 0.1 ppm [10]: 100%

Cc1cc(C2=NOC(c3cc(Cl)cc(Cl)c3)(C(F)(F)F)C2)ccc1C(=O)N[C@@H]1CC(=O)N(C)C1=O (stereo partly shown) [Compound I-1-28]
mortality at 300 ppm [1]: > 75% | mortality at 2500 ppm [2]: > 75% | mortality at 2500 ppm [3]: > 75% | mortality at 2500 ppm [4]: > 75% | mortality at 2500 ppm [5]: > 75% | mortality at 300 ppm [6]: > 75% | mortality at 300 ppm [7]: > 75% | mortality at 300 ppm [8]: > 75% | mortality at 300 ppm [9]: > 75% | mortality at 500 ppm [13]: > 75% | mortality at 10 ppm [11]: 50% | mortality at 3 ppm ([12]; 72 h): 79%

Cc1cc(C2=NSC(c3cc(Cl)cc(Cl)c3)(C(F)(F)F)C2)ccc1C(=O)NC1CCN(CC(F)(F)F)C1=O (stereo not shown) [No. 2-195 of WO 2013/092943, reference compound]
mortality at 300 ppm [11]: 0% | mortality at 10 ppm [14]: 25% | mortality at 10 ppm [15]: 0% | mortality at 3 ppm ([12]; 3 ppm, after 72 hours): 0%

Cc1cc(C2=NSC(c3cc(Cl)cc(Cl)c3)(C(F)(F)F)C2)ccc1C(=O)NC1CCN(C)C1=O (stereo not shown) [No. 2-201 of WO 2013/092943]
mortality at 300 ppm [11]: 0% | mortality at 10 ppm [14]: 0% | mortality at 3 ppm ([12]; 3 ppm, after 72 hours): 0%

CN1CCC(NC(=O)c2ccc(C3=NOC(c4cc(Cl)c(F)c(Cl)c4)(C(F)(F)F)C3)c3c2CCC3)C1=O (stereo not shown) [Tab. 126, A-9 of WO 2015128358, reference compound]
mortality at 0.1 ppm [10]: 0%

CCN1CCC(NC(=O)c2ccc(C3=NOC(c4cc(Cl)c(F)c(Cl)c4)(C(F)(F)F)C3)c3c2CCC3)C1=O (stereo not shown) [Tab. 127, A-9 of WO 2015128358, reference compound]
mortality at 0.1 ppm [10]: 0%
